From PMC9499365, “Stereoselective Synthesis and Application of Gibberellic Acid-Derived Aminodiols” (International Journal of Molecular Sciences, 2022)

Columns and labels:
[1] = tested on: A2780 ovarian cancer cells; test: MTT antiproliferative assay, A2780; format: cell-based, human; details: Homo sapiens; for IC50: A2780, 72 h; for inhibition at 10 µM: A2780, 10 μM; for inhibition at 10 µM / inhibition at 30 µM: 72 h, read-out: Growth inhibition (%) ± SEM; for inhibition at 30 µM: A2780, 30 μM
How it was run: (§1)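 Cells seeded overnight, then exposed to compound at 10 µM and 30 µM for 72 h at 37 °C, 5% CO2. Growth inhibition read by MTT (4 h), formazan dissolved in DMSO, absorbance at 545 nm versus untreated controls; two independent experiments, five wells each.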

[2] = DPPH free radical scavenging assay; details: concentration range 3–100 µM
Procedure: As a consequence, in vitro antioxidant activities of selected N-aliphatic- and N-aryl-substituted aminodiols were determined by 1,1-diphenyl-2-picrylhydrazyl (DPPH) assay.
The antioxidant effects of the aminodiol derivatives were tested on 1,1-diphenyl-2-picrylhydrazyl (DPPH) radicals according to Brand-Williams (1995) [55] and Sánchez-Moreno (2002) [56], with some modifications. […] After a 30 min incubation period at room temperature (25 °C) the absorbances were measured at 517 nm by a microplate reader (SPECTROStar Nano, BMG Labtech, Offenburg, Germany). Trolox (3,4-Dihydro-6-hydroxy-2,5,7,8-tetramethyl-2H-1-benzopyran-2-carboxylic acid) was used as a positive control. All measurements were performed in duplicate with 5 parallels.

[3] = tested on: MDA-MB-231 cells (breast cancer); test: MTT antiproliferative assay, MDA-MB-231; format: cell-based, human; details: Homo sapiens; for IC50: MDA-MB-231, 72 h; for inhibition at 10 µM: MDA-MB-231, 10 μM; for inhibition at 10 µM / inhibition at 30 µM: 72 h, read-out: Growth inhibition (%) ± SEM; for inhibition at 30 µM: MDA-MB-231, 30 μM
How it was run: as §1

[4] = tested on: SiHa cells (cervical cancer); test: MTT antiproliferative assay, SiHa; format: cell-based, human; details: Homo sapiens, 72 h; for inhibition at 10 µM / inhibition at 30 µM: read-out: Growth inhibition (%) ± SEM
How it was run: as §1

[5] = tested on: HeLa cells (cervical cancer); test: MTT antiproliferative assay, HeLa; format: cell-based, human; details: Homo sapiens, 72 h; for inhibition at 10 µM / inhibition at 30 µM: read-out: Growth inhibition (%) ± SEM
How it was run: as §1

[6] = tested on: NIH/3T3 mouse embryo fibroblast cells; test: MTT assay on non-cancerous fibroblasts (cancer selectivity); format: cell-based; details: for inhibition at 10 µM / inhibition at 30 µM / IC50: Mus musculus, NIH3T3; for inhibition at 10 µM: NIH/3T3, 10 μM; for inhibition at 10 µM / inhibition at 30 µM: 72 h, read-out: Growth inhibition (%) ± SEM; for inhibition at 30 µM: NIH/3T3, 30 μM; for IC50: NIH/3T3, 72 h; for cancer selectivity (cancer cells vs NIH/3T3 fibroblasts), words: comparison of IC50 on fibroblasts and malignant cell lines
Procedure: (§2) The in vitro antiproliferative activities of the synthesized aminodiols 4–38 against a panel of different human cancer cell lines of gynecological origin, including cervical (SiHA and HeLa), breast (MCF7 and MDA-MB-231), and ovary (A2780) cancers were assayed by the MTT method. […] Cisplatin, a clinically applied anticancer agent, was used as a reference compound and the results are summarized in Figure 3 and Table S1 in Supporting Information. […] On the other hand, none of the prepared azole derivatives exerted relevant activity.
The growth-inhibitory effects of the gibberellic acid-based aminodiol derivatives were determined by a standard MTT (3-(4,5-dimethylthiazol-2-yl)-2,5-diphenyltetrazolium bromide) assay on a panel containing five cell lines, including Hela and Siha (cervical cancers); MDA-MB-231 and MCF-7 (breast cancers); and A2780 ovarian cancer cells. The most promising agents were additionally tested against NIH/3T3 mouse embryo fibroblast cells. All cell lines were purchased from the European Collection of Cell Cultures (Salisbury, UK) except SiHa, which was obtained from the American Tissue Culture Collection (Manassas, VA, USA). The cells were maintained in minimal essential medium supplemented with 10% fetal bovine serum, 1% non-essential amino acids, and 1% penicillin-streptomycin at 37 °C in a humidified atmosphere containing 5% CO2. All media and supplements were obtained from Lonza Group Ltd., (Basel, Switzerland). Cancer cells were seeded into 96-well plates (5000 cells/well), after an overnight incubation the test compound was added in 2 different concentrations (10 µM and 30 µM) and incubated for another 72 h under cell-culturing conditions. Then, 20 μL of 5 mg/mL MTT solution was added to each well and incubated for a further 4 h. The medium was removed, and the precipitated formazan crystals were dissolved in DMSO during 60 min of shaking at 37 °C. As the final step, the absorbance was measured at 545 nm by using a microplate reader (SPECTROStar Nano, BMG Labtech, Offenburg, Germany). Untreated cells were included as controls. […] These agents were additionally tested against NIH/3T3 fibroblasts to obtain results about their cancer selectivity. Two independent experiments were performed with five wells for each condition. Cisplatin (Ebewe GmbH, Unterach, Austria), a clinically used anticancer agent, was used as a positive control. Calculations were performed utilizing the GraphPad Prism 5.01 software (GraphPad Software Inc., San Diego, CA, USA).

[7] = tested on: panel of human cancer cell lines; test: MTT antiproliferative assay, panel of human cancer cell lines (summary statements); format: cell-based; details: range over the cancer cell lines, read-out: calculated IC50 value on the malignant cell lines
Procedure: as §2
The growth-inhibitory effects of the gibberellic acid-based aminodiol derivatives were determined by a standard MTT (3-(4,5-dimethylthiazol-2-yl)-2,5-diphenyltetrazolium bromide) assay on a panel containing five cell lines, including Hela and Siha (cervical cancers); MDA-MB-231 and MCF-7 (breast cancers); and A2780 ovarian cancer cells. The most promising agents were additionally tested against NIH/3T3 mouse embryo fibroblast cells. All cell lines were purchased from the European Collection of Cell Cultures (Salisbury, UK) except SiHa, which was obtained from the American Tissue Culture Collection (Manassas, VA, USA). […] As the final step, the absorbance was measured at 545 nm by using a microplate reader (SPECTROStar Nano, BMG Labtech, Offenburg, Germany). […]

IC50 [1] [µM]	IC50 [3] [µM]	IC50 [4] [µM]	IC50 [5] [µM]	IC50 [7] [µM]	SMILES	inhibition at 10 µM [1] [%]	inhibition at 30 µM [1] [%]	DPPH scavenging activity [2]	inhibition at 10 µM [3] [%]	inhibition at 30 µM [3] [%]	inhibition at 10 µM [4] [%]	inhibition at 30 µM [4] [%]	inhibition at 10 µM [5] [%]	inhibition at 30 µM [5] [%]	inhibition at 10 µM [6] [%]	inhibition at 30 µM [6] [%]	IC50 [6] [µM]	cancer selectivity (cancer cells vs NIH/3T3 fibroblasts), words [6]
5.3 ± 0.41	7.49 ± 1.26	4.69 ± 0.17	4.38 ± 0.08	4.38 to 7.49	CCOC(=O)[C@H]1c2c(C)cccc2[C@H]2CC[C@]3(O)C[C@@]21C[C@]3(O)CN[C@@H](C)c1cccc2ccccc12 [Compound 13, Ethyl (4bS,7S,8S,9aR,10R)-7,8-dihydroxy-1-methyl-8-((((S)-1-(naphthalen-1-yl)ethyl)amino)methyl)-4b,6,7,8,9,10-hexahydro-5H-7,9a-methanobenzo[a]azulene-10-carboxylate]	91.2 ± 1.96	96.7 ± 1.17	None of the six molecules elicited considerable activity	94.86 ± 0.83	96 ± 0.92	96.05 ± 0.46	96.74 ± 0.27	97.16 ± 0.49	96.87 ± 0.47	40.5 ± 0.86	88.1 ± 0.16	10.9	modest cancer selectivity
5.15 ± 0.28	8.04 ± 0.61	5.25 ± 0.86	4.66 ± 0.21	–	CCOC(=O)[C@H]1c2c(C)cccc2C2CC[C@]3(O)C[C@@]21C[C@]3(O)CN[C@H](C)c1cccc2ccccc12 (stereo partly drawn) [Compound 14, Ethyl (7S,8S,9aR,10R)-7,8-dihydroxy-1-methyl-8-((((R)-1-(naphthalen-1-yl)ethyl)amino)methyl)-4b,6,7,8,9,10-hexahydro-5H-7,9a-methanobenzo[a]azulene-10-carboxylate]	96.53 ± 0.73	95.9 ± 1.06	None of the six molecules elicited considerable activity	96.57 ± 0.37	96.77 ± 0.16	96.3 ± 2.13	97.84 ± 0.42	98.08 ± 0.19	97.4 ± 0.34	88.6 ± 0.97	88.7 ± 0.98	5.02 ± 0.26	inhibited the growth of cancer cells and fibroblasts in the same concentration range
